Measurements taken from publication PMC6413952, “Discovery of ABBV-4083, a novel analog of Tylosin A that has potent anti-Wolbachia and anti-filarial activity” (PLoS Neglected Tropical Diseases, 2019).

Assays:
[1] = test system: Wolbachia pipientis in Aedes albopictus C6/36 (wAlbB) insect cells; assay: A·WOL Wolbachia-infected Aedes albopictus (C6/36 wAlbB) 7-day cell-based assay, high content imaging; conditions: for activity against Wolbachia: commercially available 16-membered macrolides
Source text: Compounds were screened for anti-Wolbachia activity in vitro in the A·WOL-validated Wolbachia-infected Aedes albopictus (C6/36 wAlbB) 7-day cell-based assay which utilizes a 384-well format assay with high content imaging (HCI) (Operetta) as described previously.
We began our work by selecting a diverse and representative sample of the AbbVie antibiotics collection (129 compounds) for single-point testing against Wolbachia pipientis in an insect cell line. […] While TylA has a long history of use in multiple animal species, it has never been studied in humans; and its activity against Wolbachia has not previously been reported.

[2] = Mouse pharmacokinetic study (plasma levels, IP or PO); type: in vivo, BALB/c mice
Description: PO doses were administrated by oral gavage, IP doses by intraperitoneal injection to BALB/c mice or Sprague-Dawley rats (Charles River Laboratories, USA). Serial blood samples collected into EDTA anticoagulant for plasma concentration analysis were obtained from each animal after dosing. EDTA preserved plasma samples were extracted by protein precipitation with acetonitrile fortified with internal standards. The supernatant was injected into an HPLC-MS/MS system for separation and quantitation. Detection was accomplished using a triple quadrupole mass spectrometer operated either in electrospray or atmospheric chemical ionization (APCI) mode. The area under the plasma concentration-time curve (AUC) was calculated using the linear trapezoidal rule. […] Plasma levels of TylA in BALB/c mice following IP or PO dosing (100 mg/kg).

[3] = Rat oral pharmacokinetic study (plasma AUC, C8hr); type: in vivo, Sprague-Dawley rats; conditions: for AUC* parent / AUC* TylA (metabolite): PO, Sprague-Dawley rats; for AUC* TylA (metabolite): primary metabolite TylA; for C*8hr / C*8hr/ EC50 / AUC*/EC50: PO rats; for drug levels relative to 2'-OH partners 5c and 5d / improvement in plasma drug levels (AUC) over TylA: rats; for C*8hr/ EC50: potency-weighted 8-hr drug level; for AUC*/EC50: potency-weighted AUC
Description: PO doses were administrated by oral gavage, IP doses by intraperitoneal injection to BALB/c mice or Sprague-Dawley rats (Charles River Laboratories, USA). Serial blood samples collected into EDTA anticoagulant for plasma concentration analysis were obtained from each animal after dosing. EDTA preserved plasma samples were extracted by protein precipitation with acetonitrile fortified with internal standards. The supernatant was injected into an HPLC-MS/MS system for separation and quantitation. Detection was accomplished using a triple quadrupole mass spectrometer operated either in electrospray or atmospheric chemical ionization (APCI) mode. The area under the plasma concentration-time curve (AUC) was calculated using the linear trapezoidal rule.

[4] = test system: Litomosoides sigmodontis; assay: Litomosoides sigmodontis larval mouse model (worm length); type: in vivo, BALB/c mice; conditions: 35 days post-infection
Description: As described previously, female BALB/c mice or female jirds were infected at 6–8 weeks of age with L. sigmodontis larvae through the bites of Ornithonyssus bacoti mites. […] One day post infection, mice were dosed IP or PO with TylA (Sigma Aldrich, 200 mg/kg BID x 7 days), doxycycline hyclate (Sigma-Aldrich, 200 mg/kg BID x 14 days), or vehicle using a volume of 10 ml/kg. At 35 days post-infection mice were euthanized using an overdose of isoflurane; worms were recovered from the pleural cavity by pleural lavage, counted, sexed and staged for development into L4 and adult worms based on the difference of the buccal capsule through microscopic examination. Female worms were measured for length (mm) as a marker for development as previously described. Data were distributed in a non-parametric fashion, median and interquartile ranges are presented. For comparing the length of the female worms, the Mann-Whitney-U test was used to calculate statistical differences either against the vehicle treated or gold standard groups.

[5] = test system: MDR-MDCK monolayer; type: in vitro ADME, canine; conditions: MDCK-MDR1
Source text: Drug levels in the IP arm of this study were >30-fold higher than those achieved when the drug is given PO. […] Therefore, improving drug absorption by increasing permeability became a primary goal for our lead-optimization studies.

Row | Compound | AUC* parent [3] [ng-hr/ml per mg/kg] | AUC* TylA (metabolite) [3] [ng-hr/ml per mg/kg] | C*8hr [3] [ng/mL per mg/kg] | improvement in plasma drug levels (AUC) over TylA ([3]; oral dosing) | C*8hr/ EC50 [3] [ng/ml/nM per mg/kg] | AUC*/EC50 [3] [ng-hr/ml/nM per mg/kg] | activity against Wolbachia [1] | other results
1 | CCCCC(=O)OC1C(C)OC(OC2C(C)OC(OC3C(CC=O)CC(C)C(=O)C=CC(C)=CC(COC4OC(C)C(O)C(OC)C4OC)C(CC)OC(=O)CC(O)C3C)C(O)C2N(C)C)CC1(C)O (stereo not shown) [Compound 5a] | <0.6 | 30 |  |  |  |  |  | potency improvement (EC50) over TylA ([1]; EC50 lower than parent TylA): 25 fold; parent ester in plasma ([2]; mice, oral, any time point): no sign of parent is observed; increase in oral drug levels upon 4"-acylation ([2]; mice, measured drug is deacylated metabolite TylA): ~ 3 fold
2 | CC[C@H]1OC(=O)C[C@@H](O)[C@H](C)[C@@H](O[C@@H]2O[C@H](C)[C@@H](O[C@H]3C[C@@](C)(O)[C@@H](OCc4ccc(F)cc4)[C@H](C)O3)[C@H](N(C)C)[C@H]2OC(=O)C(C)C)[C@@H](CC=O)C[C@@H](C)C(=O)/C=C/C(C)=C/[C@@H]1CO[C@@H]1O[C@H](C)[C@@H](O)[C@@H](OC)[C@H]1OC [Compound 4e] | 510 | <0.6 | 30 | 40–50 fold | 1.03 | 17.6 |  | drug levels relative to 2'-OH partners 5c and 5d ([3]; oral dosing): more than 10 fold
3 | spiramycin |  |  |  |  |  |  | inactive | 
4 | CCC1OC(=O)CC(O)C(C)C(OC2OC(C)C(OC3CC(C)(O)C(OC(=O)N(CC)CC)C(C)O3)C(N(C)C)C2OC(=O)C(C)C)C(CC=O)CC(C)C(=O)C=CC(C)=CC1COC1OC(C)C(O)C(OC)C1OC (stereo not shown) [Compound 4d] | 420 | 1.4 | 30 | 40–50 fold | 1.25 | 17.5 |  | drug levels relative to 2'-OH partners 5c and 5d ([3]; oral dosing): more than 10 fold
5 | CCC1OC(=O)CC(O)C(C)C(OC2OC(C)C(OC3CC(C)(O)C(OC(=O)C(C)(C)C)C(C)O3)C(N(C)C)C2O)C(CC=O)CC(C)C(=O)C=CC(C)=CC1COC1OC(C)C(O)C(OC)C1OC (stereo not shown) [Compound 5b] | 58 | <0.6 | 3.0 | 6 fold | 0.56 | 10.7 |  | potency-weighted AUC (AUC*/EC50) relative to TylA ([3]; oral dosing): 30 fold; deacylated product TylA as share of total circulating drug ([3]; rat pharmacokinetic study, oral): < 1%
6 | CCCCC(=O)OC1C(OC2C(CC=O)CC(C)C(=O)C=CC(C)=CC(COC3OC(C)C(O)C(OC)C3OC)C(CC)OC(=O)CC(O)C2C)OC(C)C(OC2CC(C)(O)C(O)C(C)O2)C1N(C)C (stereo not shown) [Compound 2c] | 58 | 1.2 | 2.5 | 6 fold | 0.04 | 0.89 |  | potency-weighted 8-hr drug level (C8hr/dose/EC50) relative to TylA ([3]; oral dosing): doubles; potency-weighted AUC (AUC*/EC50) relative to TylA ([3]; oral dosing): ~ 2.6 fold; metabolic stability of substituent / species observed in plasma ([3]; oral pharmacokinetic study): relatively metabolically stable
7 | CCC(=O)O[C@@H]1CC(=O)O[C@H](C)C/C=C/C=C/[C@H](O)[C@H](C)C[C@H](CC=O)[C@H](O[C@@H]2O[C@H](C)[C@@H](O[C@H]3C[C@@](C)(O)[C@@H](OC(=O)CC)[C@H](C)O3)[C@H](N(C)C)[C@H]2O)[C@H]1OC [midecamycin] |  |  |  |  |  |  | inactive | 
8 | CO[C@@H]1[C@@H](O[C@@H]2O[C@H](C)[C@@H](O[C@H]3C[C@@](C)(O)[C@@H](OC(=O)CC(C)C)[C@H](C)O3)[C@H](N(C)C)[C@H]2O)[C@@H](CC=O)C[C@@H](C)[C@@H](O)/C=C/C=C/C[C@@H](C)OC(=O)C[C@H]1O [leucomycin] |  |  |  |  |  |  | inactive | 
9 | josmycin |  |  |  |  |  |  | inactive | 
10 | CC[C@H]1OC(=O)C[C@@H](O)[C@H](C)[C@@H](O[C@@H]2O[C@H](C)[C@@H](O[C@H]3C[C@@](C)(O)[C@@H](O)[C@H](C)O3)[C@H](N(C)C)[C@H]2O)[C@@H](CC=O)C[C@@H](C)C(=O)/C=C/C(C)=C/[C@@H]1CO[C@@H]1O[C@H](C)[C@@H](O)[C@@H](OC)[C@H]1OC [1 (TylA), Tylosin A] | 9.6 |  | 0.5 |  | 0.02 | 0.34 |  | EC50 ([1]; C6/36, Wolbachia-infected insect cells, geometric mean (N), each N a duplicate measurement): 28 nM; drug levels IP arm relative to PO ([2]; BALB/c mice, 100 mg/kg IP or PO): > 30 fold; length of recovered worms ([4]; 200 mg/kg IP BID x 7 days): notably shorter than controls; length of recovered worms ([4]; 200 mg/kg PO BID x 7 days): minimal response; permeability [5]: < 0.1X10^-6 cm/sec
